From the supplement of paper PMC10307832

Tests used:
Assay in all cases: relative viability (nuclei count vs DMSO), 5 days (fraction); higher = more cells survive
Mirin + Tozasertib = compound: N=C1NC(=O)/C(=C/c2ccc(O)cc2)S1 [Mirin] + Cc1cc(Nc2cc(N3CCN(C)CC3)nc(Sc3ccc(NC(=O)C4CC4)cc3)n2)n[nH]1 [Tozasertib] (partner 0.1 µM)
In short: (§1)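 Relative viability was taken as the ratio of nuclei in treated wells to nuclei in vehicle wells. Lung cancer cell lines in 1536-well plates received compounds by pin tool one day after seeding, either one drug alone or a fixed anchor-drug dose plus five library-drug doses (not always all listed) in √10 steps. Nuclei were counted on 4× images after 5 days of treatment, and values are medians of duplicate plates.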

[1] = compound: CCC1=CN=CN=C1N2CCN(CC2)CC3=NC4=C(N3)C=C(C=C4)C(F)(F)F + C[C@]1(O)C[C@@H](c2nc(-c3ccc4ccc(-c5ccccc5)nc4c3)c3c(N)nccn32)C1 [Linsitinib] (partner 1 µM)
In short: as §1

[2] = compound: CCC1=CN=CN=C1N2CCN(CC2)CC3=NC4=C(N3)C=C(C=C4)C(F)(F)F + COc1cc2c(Oc3ccc(NC(=O)C4(C(=O)Nc5ccc(F)cc5)CC4)cc3F)ccnc2cc1OCCCN1CCOCC1 [Foretinib] (partner 0.25 µM)
In short: as §1

Mirin + Linsitinib = compound: N=C1NC(=O)/C(=C/c2ccc(O)cc2)S1 [Mirin] + C[C@]1(O)C[C@@H](c2nc(-c3ccc4ccc(-c5ccccc5)nc4c3)c3c(N)nccn32)C1 [Linsitinib] (partner 1 µM)
In short: as §1

Cell Line	relative viability (Mirin + Tozasertib; first compound 0.25 µM)	relative viability (Mirin + Tozasertib; first compound 0.7906 µM)	relative viability (Mirin + Tozasertib; first compound 2.5 µM)	relative viability (Mirin + Tozasertib; first compound 7.906 µM)	relative viability (Mirin + Tozasertib; first compound 25 µM)	relative viability ([1]; first compound 0.04 µM)	relative viability ([1]; first compound 0.1265 µM)	relative viability ([1]; first compound 0.4 µM)	relative viability ([1]; first compound 1.265 µM)	relative viability ([1]; first compound 4 µM)	relative viability ([2]; first compound 0.04 µM)	relative viability ([2]; first compound 0.1265 µM)	relative viability ([2]; first compound 0.4 µM)	relative viability ([2]; first compound 1.265 µM)	relative viability ([2]; first compound 4 µM)	relative viability (Mirin + Linsitinib; first compound 0.25 µM)	relative viability (Mirin + Linsitinib; first compound 0.7906 µM)	relative viability (Mirin + Linsitinib; first compound 2.5 µM)	relative viability (Mirin + Linsitinib; first compound 7.906 µM)	relative viability (Mirin + Linsitinib; first compound 25 µM)
NCI-H2085	0.8	0.826	0.678	0.749	0.546	0.911	0.787	0.982	0.823	0.793	0.971	1.13	0.792	0.76	0.959	0.943	1.01	0.898	0.819	0.882
NCI-H2087	0.26	0.248	0.292	0.22	0.19	1.08	1.01	1.08	0.795	0.754	1	1.06	0.916	1.05	0.535	0.992	1.11	0.915	1.23	0.841
NCI-H2126	0.85	0.834	0.92	0.832	0.474	0.666	0.696	0.725	0.614	0.733	1.15	1.26	1.06	0.986	1.17	0.713	0.707	0.756	0.639	0.698
NCI-H2228	0.267	0.197	0.235	0.203	0.176	0.343	0.629	0.814	0.576	0.689	1.09	0.848	0.647	0.746	0.801	0.702	0.64	0.783	0.831	0.553
NCI-H2347	0.58	0.457	0.681	0.587	0.439	0.961	0.926	0.944	0.942	1.09	0.8	0.714	0.798	–	0.896	0.923	1.09	0.98	0.989	0.985
NCI-H2405	0.71	0.778	0.775	0.67	0.61	0.958	1.01	0.833	–	1.02	1.06	1.02	1.06	–	1.12	0.891	1	0.963	0.895	0.789
NCI-H3122	0.368	0.337	0.355	0.382	0.305	1.11	1.11	1.01	1.08	0.93	0.924	0.968	0.94	0.978	0.977	0.994	1.04	1.06	1.15	1.05
PC-3 [JPC-3]	0.905	0.978	0.893	0.879	0.899	0.972	0.882	0.969	0.906	0.911	1.08	0.9	0.997	0.964	0.971	1.01	1.03	0.988	1.07	1.03
PC-14	0.587	0.581	0.589	0.599	0.566	0.918	0.896	0.965	0.931	0.982	1.01	0.825	0.947	0.963	0.997	0.929	0.959	1.03	0.97	1.08
RERF-LC-KJ	0.488	0.524	0.467	0.424	0.385	0.814	0.827	0.849	0.84	0.772	0.763	0.755	0.82	0.851	0.82	0.962	0.908	0.88	0.896	0.913
SK-LU-1	0.332	0.325	0.346	0.213	0.209	1.28	1.24	1.32	1	1.06	0.876	0.785	0.76	0.813	0.77	1.14	1.15	1.17	0.74	0.566
SK-MES-1	0.95	1.14	0.87	0.936	0.665	1.02	1.06	1.16	1.1	0.95	0.917	0.925	0.909	0.829	0.882	1.06	1.22	1.18	1.07	1.26
SW 1573	0.181	0.195	0.234	0.188	0.108	0.574	0.683	0.862	0.777	0.866	0.732	0.863	0.912	0.815	0.8	0.815	0.728	0.79	0.731	0.648
